Source: publication PMC6259134, “Synthesis, Antimycobacterial, Antifungal and Photosynthesis-Inhibiting Activity of Chlorinated N-phenylpyrazine-2-carboxamides” (Molecules, 2010)
In brackets after ≈: the same amount, converted by molar mass. Read-outs that look alike come from different tables or passages of the source.

Columns and labels:
[1] = Lipophilicity determination by RP-HPLC (capacity factor k / log k, distributive π parameters); assay type: physicochemical; details: for log k: RP-HPLC, C18, MeOH 70%/H2O 30%, isocratic; for π determined Ph: distributive parameter of phenyl substituents; for π determined Ph / π determined Pyr: calculated from log k; for π determined Pyr: distributive parameter of pyrazine substituents
Experimental: The procedure was performed under isocratic conditions with methanol as an organic modifier in the mobile phase using an end-capped non-polar C18 stationary RP column. The results are shown in Table 1 and illustrated in Figure 2. Waters Alliance 2695 XE HPLC separation module and Waters Photodiode Array Detector 2996 (Waters Corp., Milford, MA, USA) were used. Waters Symmetry® C18 5 μm, 4.6 ° 250 mm, Part No. WAT054275 (Waters Corp., Milford, MA, USA) chromatographic column was used. The HPLC separation process was monitored by Empower™ 2 Chromatography Data Software, Waters 2009 (Waters Corp., Milford, MA, USA). The mixture of MeOH (HPLC grade, 70%) and H2O (HPLC–Mili-Q Grade, 30%) was used as a mobile phase. The total flow rate of the column was 1.0 mL/min, injection volume 30 μL, column temperature 30 °C and sample temperature 10 °C were used. The detection wavelength of 210 nm was chosen. The KI methanolic solution was used for the dead time (tD) determination. Retention times (tR) were measured in minutes. The capacity factors k were calculated using the Empower™ 2 Chromatography Data Software according to formula k = (tR - tD)/tD, where tR is the retention time of the solute, whereas tD denotes the dead time obtained using an unretained analyte. Log k, calculated from the capacity factor k, is used as the lipophilicity index converted to log P scale. Distributive π parameters characterizing lipophilicity of the individual substituents were calculated according to the formula π = log kS – log kU, where log kS is the determined capacity factor logarithm of the individual substituted compounds, whereas log kU denotes the determined capacity factor logarithm of the unsubstituted compound, it means π = 0.

[2] = tested on: M. tuberculosis H37Rv (ATCC27294); assay: In vitro antimycobacterial primary screening (TAACF, BACTEC 460 / MABA); assay type: cell-based; details: Mycobacterium tuberculosis, read-out: Antimycobacterial evaluation Inhibition
Experimental: All compounds were assayed in vitro against M. tuberculosis H37Rv. […] None of the tested derivatives overcame this limit, see Table 2.
Antimycobacterial evaluation was carried out in the tuberculosis antimicrobial acquisition and coordinating facility (TAACF), Southern Research Institute, Birmingham, AL, U.S.A., which is a part of the National Institutes of Health (NIH). Primary screening of all compounds was conducted at 6.25 µg/mL against M. tuberculosis H37Rv (ATCC27294) in BACTEC 12B medium using both BACTEC 460 radiometric system and the Microplate Alamar Blue Assay (MABA). For the results see Table 2.

[3] = tested on: Trichophyton mentagrophytes 445; assay: In vitro antifungal susceptibility testing (microdilution broth method); assay type: cell-based; details: T. mentagrophytes; for MIC: Trichophyton mentagrophytes, 445
[4] = tested on: photosynthetic electron transport (PET) in spinach chloroplasts; assay: Inhibition of photosynthetic electron transport (PET) in spinach chloroplasts (DCPIP photoreduction); assay type: biochemical, Spinacia oleracea L.
Experimental: The activity of the majority of the studied compounds was moderate or low relative to the standard. Chloroplasts were prepared from spinach (Spinacia oleracea L.) according to Masarovičová and Kráľová [26]. […] [27], and the rate of photosynthetic electron transport was monitored as a photoreduction of DCPIP. The measurements were carried out in phosphate buffer (0.02 mol/L, pH 7.2) containing sucrose (0.4 mol/L), MgCl2 (0.005 mol/L) and NaCl (0.015 mol/L). The chlorophyll content was 30 mg/L in these experiments and the samples were irradiated (~100 W/m^2) from 10 cm distance with a halogen lamp (250 W) using a 4 cm water filter to prevent warming of the samples (suspension temperature 22 °C). The studied compounds were dissolved in DMSO due to their limited water solubility. […] The inhibitory efficiency of the studied compounds was manifested by IC50 values, i.e. by molar concentration of the compounds causing 50% decrease in the […] relative to the untreated control.

[5] = design: method as in PMID 1151976, doi:10.1002/9780470171912.ch3; details: Hammett's constant of R3 phenyl substituent; cited from earlier work
[6] = after 72 h, MIC for moulds determined as IC50 value, read-out: Antifungal susceptibility MIC
[7] = after 120 h, MIC for moulds determined as IC50 value, read-out: Antifungal susceptibility MIC

| Structure (SMILES) | log k [1] | π determined Ph [1] | π determined Pyr [1] | inhibition at 6.25 µg/mL [2] | MIC [3, 6] | MIC [3, 7] | IC50 [4] | σ [5] | Antifungal susceptibility MIC ([3]; after 120 h, MIC for moulds determined as IC50 value) | MIC ([3]; incubation time not given, read-out: MIC) |
| --- | --- | --- | --- | --- | --- | --- | --- | --- | --- | --- |
| CC(C)(C)c1ncc(C(=O)Nc2c(Cl)cccc2Cl)nc1Cl [Compound 12, 5-tert-Butyl-6-chloro-N-(2,6-dichlorophenyl)pyrazine-2-carboxamide] | 1.6631 | 0.42 | 1.00 | 0% | 125 µM (≈ 44.8 µg/mL) | 125 µM (≈ 44.8 µg/mL) | 61 µM | 0.40 | – | – |
| CC(C)(C)c1cnc(C(=O)Nc2ccc(Cl)cc2)cn1 [Compound 7] | 1.1043 | 0.16 | 0.61 | 0% | > 250 µM | > 250 µM | – | 0.227 | – | – |
| O=C(Nc1cccc(Cl)c1)c1cncc(Cl)n1 [Compound 2, 6-Chloropyrazine-2-carboxylic acid (3-chlorophenyl)amide] | 0.7864 | 0.10 | 0.30 | 14% | 125 µM (≈ 33.5 µg/mL) | 125 µM (≈ 33.5 µg/mL) | 262 µM | 0.373 | – | – |
| CC(C)(C)c1ncc(C(=O)Nc2ccc(Cl)cc2)nc1Cl [Compound 8, 6-chloro-5-tert-butyl-N-(4-chlorophenyl)pyrazine-2-carboxamide] | 1.5015 | 0.26 | 1.00 | 24% | > 250 µM | > 250 µM | 43 µM | 0.227 | – | – |
| O=C(Nc1ccc(Cl)cc1)c1cncc(Cl)n1 [Compound 6, 6-chloro-N-(4-chlorophenyl)pyrazine-2-carboxamide] | 0.8185 | 0.13 | 0.32 | 65% | > 500 µM | > 500 µM | 486 µM | 0.227 | – | – |
| CC(C)(C)c1cnc(C(=O)Nc2c(Cl)cccc2Cl)cn1 [Compound 11, 5-tert-Butyl-N-(2,6-dichlorophenyl)pyrazine-2-carboxamide] | 1.2802 | 0.34 | 0.61 | 0% | 250 µM (≈ 81.1 µg/mL) | 250 µM (≈ 81.1 µg/mL) | 153 µM | 0.40 | – | – |
| O=C(Nc1c(Cl)cccc1Cl)c1cnccn1 [Compound 9, N-(2,6-dichlorophenyl)pyrazine-2-carboxamide] | 0.6656 | 0.25 | 0.00 | 0% | > 500 µM | > 500 µM | – | 0.40 | – | – |
| OC(Cn1cncn1)(Cn1cncn1)c1ccc(F)cc1F [FLU, fluconazole, reference compound] | – | – | – | – | 1.95 µM (≈ 0.597 µg/mL) | 3.91 µM (≈ 1.2 µg/mL) | – | – | 3.91 µM | – |
| O=C(Nc1cccc(Cl)c1)c1cnccn1 [Compound 1, Pyrazine-2-carboxylic acid (3-chlorophenyl)amide] | 0.4914 | 0.08 | 0.00 | 14% | 500 µM (≈ 117 µg/mL) | > 500 µM | 290 µM | 0.373 | – | – |
| CC(C)(C)c1ncc(C(=O)Nc2ccc(Cl)c(Cl)c2)nc1Cl [Compound 16, 6-chloro-5-tert-butyl-N-(3,4-dichlorophenyl)pyrazine-2-carboxamide] | 1.7563 | 0.51 | 1.04 | 0% | 62.5 µM (≈ 22.4 µg/mL) | 62.5 µM (≈ 22.4 µg/mL) | 130 µM | 0.60 | – | 62.5 µM (≈ 22.4 µg/mL) |
| O=C(Nc1ccc(Cl)c(Cl)c1)c1cncc(Cl)n1 [Compound 14, 6-chloro-N-(3,4-dichlorophenyl)pyrazine-2-carboxamide] | 0.9950 | 0.31 | 0.28 | 61% | 125 µM (≈ 37.8 µg/mL) | 250 µM (≈ 75.6 µg/mL) | 105 µM | 0.60 | – | – |
| O=C(Nc1c(Cl)cccc1Cl)c1cncc(Cl)n1 [Compound 10, 6-Chloro-N-(2,6-dichlorophenyl)pyrazine-2-carboxamide] | 0.9456 | – | – | 0% | > 250 µM | > 250 µM | 829 µM | 0.40 | – | – |
| CC(C)(C)c1ncc(C(=O)Nc2cccc(Cl)c2)nc1Cl [Compound 4, 5-tert-Butyl-6-chloropyrazine-2-carboxylic acid (3-chlorophenyl)amide] | 1.4896 | 0.25 | 1.00 | 0% | > 250 µM | > 250 µM | 101 µM | 0.373 | – | – |
| O=C(Nc1ccc(Cl)c(Cl)c1)c1cnccn1 [Compound 13] | 0.6962 | 0.30 | 0.00 | 8% | > 250 µM | > 250 µM | – | 0.60 | – | – |
| O=C(Nc1ccc(Cl)cc1)c1cnccn1 [Compound 5] | 0.4987 | 0.09 | 0.00 | 4% | > 250 µM | > 250 µM | 1520 µM | 0.227 | – | – |
| CC(C)(C)c1cnc(C(=O)Nc2ccc(Cl)c(Cl)c2)cn1 [Compound 15] | 1.3395 | 0.40 | 0.62 | 15% | 125 µM (≈ 40.5 µg/mL) | 125 µM (≈ 40.5 µg/mL) | – | 0.60 | – | – |
